From ChEMBL document CHEMBL1201862, “PubChem BioAssay data set” (2004)
The source made the active and inactive calls.

Key:
[1] = Luminescence Cell-Based Dose Response HTS to Identify Inhibitors of Luciferase Translation or Activity in H4-C Neuroglioblastoma Cells. [Related pubchem assays: 1813 (Primary HTS), 1827 (Project Summary)]; assay type: functional
[2] = Luminescence Cell-Based Dose Confirmation HTS to Identify Inhibitors of 5'UTR Stem-Loop Driven Alpha-Synuclein mRNA Translation in H4 Neuroglioblastoma Cells. [Related pubchem assays: 1827 (Project Summary), 1813 (Primary HTS)]; assay type: functional
[3] = HepG2 cell cytotoxicity, dose response, cytotoxicity control for Shn3 inhibitor project, CellTiter-Glo, cherry-picked (AID 624134); assay type: functional, cell-based
[4] = inhibitors of firefly luciferase expression or activity, dose response, H4 neuroglioma cells, luminescence (AID 1990); assay type: functional, cell-based
[5] = control 3'UTR Renilla luciferase suppression, dose response, counter-screen for Shn3 inhibitor project, cell-based, Clone20-Shn3RL, cherry-picked (AID 624133); assay type: functional
[6] = Luminescence Cell-Based Dose Response HTS to Identify Activators of Luciferase Translation or Activity in H4-C Neuroglioblastoma Cells. [Related pubchem assays: 1829 (Project Summary), 1814 (Primary HTS)]; assay type: functional
[7] = Luminescence Cell-Based Dose HTS Response to Identify Inhibitors of 5'UTR Stem-Loop Driven Prion Protein mRNA Translation in H4-C Neuroglioblastoma Cells. [Related pubchem assays (depositor defined):AID1814, AID1827]; assay type: functional
[8] = Shn3 3'UTR reporter inhibitors, dose response, cell-based, Clone20 osteoblasts, firefly luciferase, cherry-picked (AID 624132); assay type: functional;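 also: firefly luciferase luminescence from reporter carrying the Shn3 3'UTR in osteoblasts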
[9] = cytotoxicity in HEK-293T cells, dose response, cytotoxicity control for TCR NF-kB inhibitor project, luminescence, T-cell screen hits (AID 489026); assay type: functional, cell-based;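 also: cells exposed to compound about 14 hours before the viability readout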
[10] = Luminescence Cell-Based Dose Response HTS to Identify Activators of 5'UTR Stem-Loop Driven Prion Protein mRNA Translation in H4-C Neuroglioblastoma Cells. [Related pubchem assays: 1829 (Project Summary), 1814 (Primary HTS)]; assay type: functional
[11] = Luminescence Cell-Based Dose Retest to Confirm Activators of 5'UTR Stem-Loop Driven Alpha-Synuclein mRNA Translation in H4 Neuroglioblastoma Cells. [Related pubchem assays (depositor defined):AID1813, AID1829]; assay type: functional
[12] = inhibitors of SNCA 5'UTR-driven reporter translation, confirmation, H4 neuroglioma cells, luminescence (AID 1988); assay type: functional, cell-based
[13] = Luminescence Cell-Based Dose Response HTS to Identify Inhibitors of 5'UTR Stem-Loop Driven Prion Protein mRNA Translation in H4 Neuroglioblastoma Cells. [Related pubchem assays: 1827 (Project Summary), 1813 (Primary HTS)]; assay type: functional
[14] = biological target: Sphingosine 1-phosphate receptor 5 (Homo sapiens, UniProt Q9H228); assay: (§1) Late-stage fluorescence-based dose-response cell-based assay to identify agonists of the Sphingosine 1-Phosphate Receptor 4 (S1P4): Sphingosine 1-Phosphate Receptor 5 (S1P5) counterscreen assay. [Related pubchem assays (depositor defined):AID1509, AID1523, AID1563, AID1686, AID1701, AID1801, AID463107, AID463225, AID504400]; assay type: functional
Chain of Sphingosine 1-phosphate receptor 5 (Q9H228 whole entry): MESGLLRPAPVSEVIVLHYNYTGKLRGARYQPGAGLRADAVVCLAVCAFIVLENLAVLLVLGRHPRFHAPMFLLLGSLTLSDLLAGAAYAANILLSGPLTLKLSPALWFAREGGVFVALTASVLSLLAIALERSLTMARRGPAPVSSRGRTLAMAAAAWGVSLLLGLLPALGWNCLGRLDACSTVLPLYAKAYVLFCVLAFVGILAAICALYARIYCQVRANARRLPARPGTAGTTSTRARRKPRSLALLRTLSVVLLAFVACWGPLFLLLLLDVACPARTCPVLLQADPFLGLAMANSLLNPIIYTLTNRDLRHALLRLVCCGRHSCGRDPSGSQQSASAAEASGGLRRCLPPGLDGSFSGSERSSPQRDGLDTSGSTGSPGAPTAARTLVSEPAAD

[15] = biological target: Sphingosine 1-phosphate receptor 3 (Homo sapiens, UniProt Q99500); assay: as §1, with “3 (S1P3)” for “5 (S1P5)”; assay type: functional
Chain of Sphingosine 1-phosphate receptor 3 (Q99500 whole entry): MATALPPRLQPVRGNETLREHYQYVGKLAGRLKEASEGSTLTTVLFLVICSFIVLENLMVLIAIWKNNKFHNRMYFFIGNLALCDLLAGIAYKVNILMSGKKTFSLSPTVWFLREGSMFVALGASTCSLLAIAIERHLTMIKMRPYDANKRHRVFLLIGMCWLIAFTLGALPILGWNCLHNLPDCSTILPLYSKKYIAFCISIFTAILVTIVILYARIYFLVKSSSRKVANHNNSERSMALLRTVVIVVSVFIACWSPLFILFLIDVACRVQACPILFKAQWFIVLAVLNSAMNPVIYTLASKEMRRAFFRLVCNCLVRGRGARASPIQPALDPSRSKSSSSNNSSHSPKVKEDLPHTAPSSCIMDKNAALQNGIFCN

[16] = biological target: Sphingosine 1-phosphate receptor 1 (Homo sapiens, UniProt P21453); assay: as §1, with “1 (S1P1)” for “5 (S1P5)”; assay type: functional
Chain of Sphingosine 1-phosphate receptor 1 (P21453 whole entry): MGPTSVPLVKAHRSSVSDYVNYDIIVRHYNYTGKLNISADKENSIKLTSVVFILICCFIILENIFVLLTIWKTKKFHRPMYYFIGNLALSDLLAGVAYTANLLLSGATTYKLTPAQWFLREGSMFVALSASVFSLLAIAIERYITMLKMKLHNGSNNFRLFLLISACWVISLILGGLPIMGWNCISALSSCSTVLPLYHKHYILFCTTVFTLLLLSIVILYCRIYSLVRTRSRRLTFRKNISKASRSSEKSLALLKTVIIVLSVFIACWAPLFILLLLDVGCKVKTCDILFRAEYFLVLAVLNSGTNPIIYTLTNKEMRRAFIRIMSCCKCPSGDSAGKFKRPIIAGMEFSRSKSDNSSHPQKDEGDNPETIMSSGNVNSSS

[17] = biological target: Sphingosine 1-phosphate receptor 2 (Homo sapiens, UniProt O95136); assay: as §1, with “2 (S1P2)” for “5 (S1P5)”; assay type: functional
Chain of Sphingosine 1-phosphate receptor 2 (O95136 whole entry): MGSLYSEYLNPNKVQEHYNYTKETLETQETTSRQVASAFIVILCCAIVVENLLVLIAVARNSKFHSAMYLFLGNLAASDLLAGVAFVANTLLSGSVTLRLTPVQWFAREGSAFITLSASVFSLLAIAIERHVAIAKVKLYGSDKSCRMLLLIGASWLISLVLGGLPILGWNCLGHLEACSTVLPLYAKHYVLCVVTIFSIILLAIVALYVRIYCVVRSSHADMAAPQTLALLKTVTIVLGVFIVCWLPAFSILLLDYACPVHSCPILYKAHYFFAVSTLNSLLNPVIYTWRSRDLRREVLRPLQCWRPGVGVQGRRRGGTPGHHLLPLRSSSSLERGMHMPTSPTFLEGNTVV

[18] = biological target: G-protein coupled receptor 55 (Homo sapiens, UniProt Q9Y2T6); assay: SAR Analysis of Selective Antagonists of GPR55 using an Image-Based Assay - Set 4. [Related pubchem assays (depositor defined):AID2013, AID2026]; assay type: functional;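 also: antagonism of response to 5 µM lysophosphatidylinositol agonist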
Chain of G-protein coupled receptor 55 (Q9Y2T6 whole entry): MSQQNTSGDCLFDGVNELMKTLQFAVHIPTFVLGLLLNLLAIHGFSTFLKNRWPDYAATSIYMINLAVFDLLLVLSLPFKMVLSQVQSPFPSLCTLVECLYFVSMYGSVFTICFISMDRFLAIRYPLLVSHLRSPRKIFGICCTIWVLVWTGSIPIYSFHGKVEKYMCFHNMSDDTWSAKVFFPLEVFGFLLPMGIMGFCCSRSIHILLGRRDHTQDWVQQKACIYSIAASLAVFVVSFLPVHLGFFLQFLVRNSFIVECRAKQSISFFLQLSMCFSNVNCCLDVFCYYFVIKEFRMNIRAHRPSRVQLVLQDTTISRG

Cannabinoid receptor 1 [19] = biological target: T1, Cannabinoid receptor 1 (Homo sapiens, UniProt P21554); assay: SAR analysis of antagonists of the Cannabinoid Receptor 1 using an Image-Based Assay - Set 4. [Related pubchem assays (depositor defined):AID2013, AID2026]; assay type: functional
T1 sequence (P21554 whole entry): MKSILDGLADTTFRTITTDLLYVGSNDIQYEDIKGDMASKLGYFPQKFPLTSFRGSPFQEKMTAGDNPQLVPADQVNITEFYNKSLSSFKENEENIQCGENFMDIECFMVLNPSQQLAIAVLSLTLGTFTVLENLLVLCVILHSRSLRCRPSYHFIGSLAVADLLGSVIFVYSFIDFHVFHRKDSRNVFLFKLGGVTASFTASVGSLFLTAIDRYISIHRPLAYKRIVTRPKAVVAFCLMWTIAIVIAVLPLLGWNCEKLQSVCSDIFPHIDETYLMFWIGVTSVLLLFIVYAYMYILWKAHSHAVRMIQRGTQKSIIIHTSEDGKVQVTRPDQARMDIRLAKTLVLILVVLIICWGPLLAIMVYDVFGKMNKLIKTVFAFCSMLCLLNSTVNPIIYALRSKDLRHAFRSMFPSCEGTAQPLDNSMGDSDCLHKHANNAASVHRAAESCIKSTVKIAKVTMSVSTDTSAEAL

Cannabinoid receptor 1 [20] = biological target: T1, Cannabinoid receptor 1; assay: SAR analysis of agonists of the Cannabinoid Receptor 1 using an Image-Based Assay - Set 4. [Related pubchem assays (depositor defined):AID2013, AID2026]; assay type: functional
[21] = biological target: T2, G-protein coupled receptor 35 (Homo sapiens, UniProt Q9HC97); assay: SAR analysis of Antagonists of the GPR35 Receptor using an Image-Based Assay - Set 6. [Related pubchem assays (depositor defined):AID2013, AID2026]; assay type: functional
T2 sequence (Q9HC97 whole entry): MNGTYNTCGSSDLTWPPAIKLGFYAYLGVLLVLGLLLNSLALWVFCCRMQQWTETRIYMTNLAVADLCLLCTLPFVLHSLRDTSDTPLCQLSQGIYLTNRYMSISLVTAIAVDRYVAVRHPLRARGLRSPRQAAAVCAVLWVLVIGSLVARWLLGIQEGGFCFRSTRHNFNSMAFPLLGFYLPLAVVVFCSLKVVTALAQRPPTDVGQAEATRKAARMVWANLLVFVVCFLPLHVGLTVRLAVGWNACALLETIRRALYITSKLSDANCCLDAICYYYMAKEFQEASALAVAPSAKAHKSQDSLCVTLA

Cannabinoid receptor 2 [22] = biological target: T3, Cannabinoid receptor 2 (Homo sapiens, UniProt P34972); assay: SAR analysis of antagonists of the Cannabinoid Receptor 2 using an Image-Based Assay - Set 3. [Related pubchem assays (depositor defined):AID2013, AID2026]; assay type: functional
T3 sequence (P34972 whole entry): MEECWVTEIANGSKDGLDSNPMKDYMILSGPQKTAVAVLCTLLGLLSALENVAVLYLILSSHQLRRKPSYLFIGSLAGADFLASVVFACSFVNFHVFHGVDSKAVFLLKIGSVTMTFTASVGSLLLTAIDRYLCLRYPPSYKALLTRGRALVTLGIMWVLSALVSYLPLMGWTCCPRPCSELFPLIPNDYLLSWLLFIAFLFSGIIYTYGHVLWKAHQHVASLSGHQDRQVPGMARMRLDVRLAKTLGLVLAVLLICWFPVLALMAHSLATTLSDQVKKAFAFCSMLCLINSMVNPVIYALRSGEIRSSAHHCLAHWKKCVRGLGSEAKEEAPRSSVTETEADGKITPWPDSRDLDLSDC

[23] = biological target: T2, G-protein coupled receptor 35; assay: SAR analysis of Agonists of the GPR35 Receptor using an Image-Based Assay - Set 4. [Related pubchem assays (depositor defined):AID2013, AID2026]; assay type: functional
Cannabinoid receptor 2 [24] = biological target: T3, Cannabinoid receptor 2; assay: SAR analysis of agonists of the Cannabinoid Receptor 2 using an Image-Based Assay - Set 3. [Related pubchem assays (depositor defined):AID2013, AID2026]; assay type: functional
Trypsin = Trypsin (Sus scrofa, UniProt P00761); assay: porcine trypsin inhibitors, dose response, selectivity assay for Rce1 protease inhibitor project, biochemical, quenched peptide fluorescence, cherry-pick (AID 488789)
Chain of Trypsin (P00761 whole entry): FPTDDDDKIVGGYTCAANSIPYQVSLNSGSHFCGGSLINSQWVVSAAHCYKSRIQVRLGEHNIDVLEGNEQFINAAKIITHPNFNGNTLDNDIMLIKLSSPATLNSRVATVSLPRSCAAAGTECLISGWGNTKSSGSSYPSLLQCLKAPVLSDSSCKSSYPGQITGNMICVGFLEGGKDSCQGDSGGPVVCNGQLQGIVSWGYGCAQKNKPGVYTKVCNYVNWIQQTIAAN

CAAX prenyl protease 2 = biological target: T4, CAAX prenyl protease 2 (Saccharomyces cerevisiae S288c, UniProt Q03530); assay type: biochemical
T4 sequence (Q03530 whole entry): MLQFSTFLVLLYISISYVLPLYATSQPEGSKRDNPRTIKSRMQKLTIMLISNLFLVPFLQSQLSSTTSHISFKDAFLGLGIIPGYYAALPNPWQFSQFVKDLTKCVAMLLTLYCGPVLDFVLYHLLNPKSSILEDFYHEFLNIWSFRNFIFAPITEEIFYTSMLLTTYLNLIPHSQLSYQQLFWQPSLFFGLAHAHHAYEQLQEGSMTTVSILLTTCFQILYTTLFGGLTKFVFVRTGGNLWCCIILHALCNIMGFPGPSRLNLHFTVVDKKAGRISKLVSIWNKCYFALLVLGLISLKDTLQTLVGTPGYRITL

[25] = mammalian cell cytotoxicity, dose response, cytotoxicity control, plate reader, cherry-pick samples (AID 504397); assay type: functional, cell-based

## CCCOc1ccccc1C1CC(=O)Nc2cc3c(cc21)OCO3 (configuration not stated)
[1]
  EC50: 2.97 µM (active)
[2]
  EC50: 35.8 µM (active)
[3]
  AC50: > 70 µM (inactive)
[4]
  EC50: 3.65 µM (inconclusive)
[5]
  AC50: 15.3 µM (active)
[6]
  EC50: 2.97 µM (inconclusive)
[7]
  EC50: 2.4 µM (active)
[8]
  AC50: 5.72 µM (active)
[9]
  IC50: 60.1 µM (inactive)
[10]
  EC50: 2.4 µM (inconclusive)
[11]
  EC50: 35.8 µM (inconclusive)
[12]
  EC50: 0.158 µM (active)
[13]
  EC50: > 120 µM (not active)

## Cc1ccc(OCCOc2c(Cl)cc(Cl)cc2Cl)c([N+](=O)[O-])n1
[14]
  EC50: > 50 µM (inactive)
[15]
  EC50: > 50 µM (inactive)
[16]
  EC50: > 50 µM (inactive)
[17]
  EC50: > 50 µM (inactive)

## N=c1c(C(=O)NC2CCCCC2)cc2c(=O)n3ccccc3nc2n1C1CCCC1
[18]
  IC50: 29 µM (inactive)
Cannabinoid receptor 1 [19]
  IC50: > 32 µM (inactive)
Cannabinoid receptor 1 [20]
  EC50: > 32 µM (inactive)
[21]
  IC50: > 32 µM (inactive)
Cannabinoid receptor 2 [22]
  IC50: > 32 µM (inactive)
[23]
  EC50: > 32 µM (inactive)
Cannabinoid receptor 2 [24]
  EC50: > 32 µM (inactive)

## COc1cccc(C2CC(c3ccc(Br)cc3)=NN2C(=O)c2ccncc2)c1OC (configuration not stated)
Trypsin
  AC50: 48.7 µM (active)
CAAX prenyl protease 2
  AC50: 3.7 µM (active)
[25]
  AC50: 45.2 µM (active)
